# System: caterpillars of the army worm (Spodoptera frugiperda)
# Assay: Spodoptera frugiperda test
# Type: in vivo
# Conditions: 1000 ppm, cabbage leaves (Brassica oleracea) dipped
# Method: (§1) Spodoptera frugiperda Test • Solvent: 30 parts by weight of dimethylformamide • Emulsifier: 1 part by weight of alkylaryl polyglycol ether To produce a suitable preparation of active compound, 1 part by weight of active compound is mixed with the stated amounts of solvent and emulsifier, and the concentrate is diluted with emulsifier-containing water to the desired concentration. Cabbage leaves (Brassica oleracea) are treated by being dipped into the preparation of active compound of the desired concentration and are populated with caterpillars of the army worm (Spodoptera frugiperda) while the leaves are still moist. After the desired period of time, the kill in % is determined. 100% means that all caterpillars have been killed; 0% means that none of the caterpillars have been killed.
row,Structure (SMILES),Kill rate in % after 7 days
1,N#CC1CC(c2ccccc2Cl)=NC1c1ccc(-c2ccc(OC(F)(F)F)cc2)cc1 (stereo not drawn),100%
2,CC(C)c1ccc(-c2ccc(C3N=C(c4ccccc4Cl)CC3C#N)cc2)cc1 (stereo not drawn),100%
3,COC(=O)C1CC(c2c(F)cccc2F)=NC1c1ccc(-c2ccc(OC(F)(F)F)cc2)cc1 (stereo not drawn) [drawing 151],100%
4,COC(=O)C1CC(c2ccccc2Cl)=NC1c1ccc(-c2ccc(OC(F)(F)F)cc2)cc1 (stereo not drawn) [drawing 152],100%
5,N#CC1CC(c2c(F)cccc2F)=NC1c1ccc(-c2ccc(OC(F)(F)F)cc2)cc1 (stereo not drawn) [drawing 154],100%

# System: Liriomyza trifolii
# Assay: Liriomyza test
# Type: in vivo
# Conditions: 1000 ppm, bean plants (Phaseolus vulgaris) dipped
# Method: Liriomyza Test • Solvent: 3 parts by weight of dimethylformamide • Emulsifier: 1 part by weight of alkylaryl polyglycol ether To produce a suitable preparation of active compound, 1 part by weight of active compound is mixed with the stated amounts of solvent and emulsifier, and the concentrate is diluted with emulsifier-containing water to the desired concentration. Bean plants (Phaseolus vulgaris) which are infested by eggs and development stages of […] (Liriomyza trifolii) are dipped into a preparation of active compound of the desired concentration. After the desired period of time, the effect in % is determined. 100% means that all […] have been killed; 0% means that none of the […] have been killed.
row,Structure (SMILES),Kill rate in % after 7 days
1,COC(=O)C1CC(c2c(F)cccc2F)=NC1c1ccc(-c2ccc(OC(F)(F)F)cc2)cc1 (stereo not drawn) [drawing 145],100%

# System: not listed separately
# Assay: log P determination by HPLC on reversed-phase column (C 18), EEC directive 79/831 Annex V.A8
# Type: physicochemical
# Conditions: reversed-phase HPLC column (C 18), pH 2.3, pH 2.3 (marked a), 0.1% aqueous phosphoric acid/acetonitrile, 43° C.
# Method: The log P values given in the tables and Preparation Examples above are determined in accordance with EEC directive 79/831 Annex V.A8 by HPLC (High Performance Liquid Chromatography) using a reversed-phase column (C 18). Temperature: 43° C. In the acidic range, the determination is carried out at pH 2.3 using the mobile phases 0.1% aqueous phosphoric acid and acetonitrile; linear gradient from 10% acetonitrile to 90% acetonitrile (marked^a) in the table). In the neutral range, the determination is carried out at pH 7.5 using the mobile phases 0.01-molar aqueous phosphate buffer solution and acetonitrile; linear gradient from 10% acetonitrile to 90% acetonitrile (marked^b) in the table). Calibration is carried out using unbranched alkan-2-ones (having 3 to 16 carbon atoms) with known log P values (determination of the log P values by the retention times using linear interpolation between two successive alkanones).
row,Structure (SMILES),chromatographic logP
1,COc1cccc(CNC(=O)[C@H]2CC(c3c(F)cccc3F)=NC2c2ccc(-c3ccc(OC(F)(F)F)cc3)cc2)c1OC (stereo partly drawn) [Example 95],4.03
2,Cc1cc(C)cc(CNC(=O)[C@H]2CC(c3c(F)cccc3F)=NC2c2ccc(-c3ccc(OC(F)(F)F)cc3)cc2)c1 (stereo partly drawn) [Example 96],4.72
3,O=C(NCc1ccc(F)cc1F)[C@H]1CC(c2c(F)cccc2F)=NC1c1ccc(-c2ccc(OC(F)(F)F)cc2)cc1 (stereo partly drawn) [Example 97],4.23
4,Cc1cccc(CNC(=O)[C@H]2CC(c3c(F)cccc3F)=NC2c2ccc(-c3ccc(OC(F)(F)F)cc3)cc2)c1 (stereo partly drawn) [Example 98],4.41

# System: Meloidogyne icognita
# Assay: Meloidogyne test
# Type: in vivo
# Conditions: 20 ppm, lettuce in sand, nematicidal action by formation of galls
# Method: Meloidogyne Test • Solvent: 30 parts by weight of dimethylformamide • Emulsifier: 1 part by weight of alkylaryl polyglycol ether To produce a suitable preparation of active compound, 1 part by weight of active compound is mixed with the stated amounts of solvent and emulsifier, and the concentrate is diluted with emulsifier-containing water to the desired concentration. Vessels are filled with sand, solution of active compound, Meloidogyne icognita egg/larvae suspension and lettuce seeds. The lettuce seeds germinate and the plants develop. On the roots, galls develop. After the desired period of time, the nematicidal action is determined in % by the formation of galls. 100% means that no galls have been found; 0% means that the number of galls on the treated plants corresponds to that of the untreated control.
row,Structure (SMILES),Kill rate in % after 14 days
1,COC(=O)C1CC(c2c(F)cccc2F)=NC1c1ccc(-c2ccc(OC(F)(F)F)cc2)cc1 (stereo not drawn) [drawing 146],100%
2,N#CC1CC(c2c(F)cccc2F)=NC1c1ccc(-c2ccc(OC(F)(F)F)cc2)cc1 (stereo not drawn) [drawing 147],90%

# System: larvae of the mustard beetle (Phaedon cochloeariae)
# Assay: Phaedon larvae test
# Type: in vivo
# Conditions: 1000 ppm, cabbage leaves (Brassica oleracea) dipped
# Method: as §1, with “Phaedon larvae Test” for “Spodoptera frugiperda Test”, “with larvae” for “with caterpillars”, “the mustard beetle (Phaedon cochloeariae)” for “the army worm (Spodoptera frugiperda)”, “all beetle larvae” for “all caterpillars”, “the beetle larvae” for “the caterpillars”
row,Structure (SMILES),Kill rate in % after 7 days
1,COC(=O)C1CC(c2c(F)cccc2F)=NC1c1ccc(-c2ccc(OC(F)(F)F)cc2)cc1 (stereo not drawn) [drawing 148],100%
2,N#CC1CC(c2c(F)cccc2F)=NC1c1ccc(-c2ccc(OC(F)(F)F)cc2)cc1 (stereo not drawn) [drawing 149],100%
3,COC(=O)C1CC(c2ccccc2Cl)=NC1c1ccc(-c2ccc(OC(F)(F)F)cc2)cc1 (stereo not drawn) [drawing 150],100%

# Source: patent US6995185B2, “Δ1-pyrrolines used as pesticides” (Bayer Cropscience AG, priority 2000, dated 2006)
